Data: patent US20260231848A1, “A METHOD OF TREATING SEEDS AND SEEDS PRODUCED THEREBY” (RESEARCH FOUNDATION OF THE CITY UNIVERSITY OF NEW YORK, priority 2023, published 2026)

Legend:
[1] = Dissolution of the compounds for the stock solution; format: physicochemical; details: stock solution of 100 mM; visible observation
Protocol: In order to select the optimum concentration of NOSH and NOSH-ASA, a concentration gradient was performed. To achieve the gradient, a stock solution of 100 mM was prepared. […] Therefore, it was decided to prepare a stock solution using 100% DMSO and then dilute the composition to 0.1% DMSO.

[2] = test system: Arabidopsis thaliana seeds (ecotype Col-0); assay: Seed treatment at pre-germination stage, plant growth (rosette fresh weight, projected rosette area); format: in vivo; details: for concentration resulting in highest increase in fresh weight: screening at concentration gradient 0-100 μM, rosettes 22 DAS, seeds soaked 12 hrs
Protocol: Stock solutions of NOSH or NOSH-ASA were each prepared by initial dissolution in 100% DMSO. From each stock solution, treatment compositions at a 0-100 μM concentration gradient (diluted in 0.1% v/v DMSO) were prepared. Arabidopsis thaliana seeds (ecotype Col-0) were treated at their pre-germination stage with different concentrations of NOSH or NOSH-aspirin solutions (0-100 μM concentration gradient) by soaking the seeds in Petri dishes at room temperature and in the dark. After 12 hrs, the seeds were air dried for 2-3 hrs. Four seeds per pot were sown in soil medium and stratified at 4° C. for 4 days to achieve germination uniformity. Then the pots were transferred to the growth room and allowed to grow under controlled conditions of 22° C., and a 16-hr day (100-120 μmol m^−2 s^−1)/8-hr night regime for 22 days (d). Nine Days After Stratification (DAS), one seedling, which had the projected rosette area closest to the median area of the treatment, was selected from the four seedlings sown per pot. Four independent experiments were carried out using a minimum of 6-8 independent plants as replicates per experiment. Projected Rosette Area (PRA) was determined by taking pictures of the rosettes 22 days after stratification (DAS). The pictures were subsequently analyzed using ImageJ software (http://rsb.info.nih.gov/ij/) to measure the size of each plant. Represented rosette sizes were calculated by taking the average of the individual plant per repeat and then per treatment. The same rosettes were used also for fresh weight measurements. In this connection it is noted that in preliminary experiments no substantial differences between the ratio of fresh weight and the ratio of dry weight under optimum soil water content was observed. Statistical analysis was performed with SAS (Version 9.4 of the SAS System for windows 7 64 bit by using the mixed model analysis. Copyright C 2002-2012 SAS Institute Inc. Cary, NC, USA (www.sas.com). Seeds were treated by seed soaking for 12 hr with NOSH at 50 μM. Four seeds were then sown in soil medium within a pot and allowed to grow for 22 days under the conditions described above.

[3] = test system: tomato seeds (4 different varieties); assay: Tomato seed priming under salt stress conditions; format: in vivo; details: for fruit yield per plant: 50 μM in 0.1% DMSO, seeds soaked 12 hours, vs untreated, hydroprimed, solvent-treated seeds
Protocol: A experiment has been carried out, whereby the effect of NOSH-A pre-treatment of tomato seeds was examined under salt stress conditions. The treatments were as follows: • Untreated tomato seeds (4 different varieties—CV1-4) • Hydroprimed seeds (soaked in dH2O) • NOSH-A control treated seeds (soaked in 0.1% DMSO) • NOSH-A primed seeds NOSH-A was initially prepared in a stock solution of 50 mM using DMSO. The working solution was made by diluting the stock in water to reach a final concentration of 50 μM in 0.1% DMSO. Seed priming was performed by soaking the seeds in NOSH-A solution for 12 hours at 25° C. Then the seeds were placed in gauze under the laminar flow for air-drying, till reaching their initial weight. The seeds were sown in plastic seedling trays (1 seed per pot) filled with sterile soil, covered with a transparent film, and let to germinate in a growth chamber room under certain conditions of 24/20° C. day/night temperatures, 60-70% RH, with a photosynthetic photon flux density of 120 μmol m^2 s^−1 and a 16/8-h photoperiod. At day 7 after sowing, seedlings were transplanted into square plastic pots filled with sterilized pot soil, transferred into a glasshouse, and let to grow until day 24. Growing plants were watered three times per week. Plants were then watered with saline solution (7.8-12.0 dS/m), while controls were watered with dH2O, until fruiting. A total of four harvests were carried out, with yield data being the total of the four harvesting events. All analyses were carried out using six independent plants per treatment.

[4] = test system: baby spinach cultivars (Sunangel RZ, Scarne F1PV-1656); assay: Baby spinach seed priming, growth under heat stress; format: in vivo; details: day 37-40° C., 50 μM seed priming 12 hours
Protocol: NOSH-A was initially prepared in a stock solution of 50 mM using DMSO. The working solution was made by diluting the stock in water to reach a final concentration of 50 μM in 0.1% DMSO. Seed priming was performed by soaking the seeds of two baby spinach cultivars (Sunangel RZ, Scarne F1PV-1656) in NOSH-A solution for 12 hours at 25° C. Then the seeds were placed in gauze under the laminar flow for air-drying, till reaching their initial weight. Seeds were sown in the soil in a commercial greenhouse (FIG. 6a), and let to grow until day 30. Average day temperature ranged between 37-40° C., while night temperature ranged between 21-23° C. Growing plants were watered three times per week. All agronomic analyses were carried out using a minimum of nine independent plants per treatment, while survival percentage was calculated from a total of 300 plants per treatment.

[5] = test system: Arabidopsis thaliana seeds (ecotype Col-0); assay: Leaf 3 area and epidermal cell analysis of plants from treated seeds; format: in vivo; details: 50 μM at seed level, carrier 0.1% DMSO
Protocol: For the leaf area analysis, 3rd true leaves were harvested from all the replicates and then the leaves were cleared in 100% ethanol, mounted in lactic acid on microscope slides, and photographed. Leaf areas were measured with the ImageJ software (http://rsb.info.nih.gov//ij/). Abaxial epidermal cells were drawn with a DMLB microscope (Leica) fitted with a drawing tube and a differential interference contrast objective. Drawings were scanned and analyzed using automated image analysis algorithms (Andriankaja et al. 2012). Subsequently, drawings were used to measure average cell size, from which the total pavement cell number was calculated. The stomatal index was defined as the percentage of stomata in relation to the number of epidermal cells. Statistical analysis was performed with SAS (Version 9.4 of the SAS System for windows 7 64 bit by using the mixed model analysis. Copyright C 2002-2012 SAS Institute Inc. Cary, NC, USA (www.sas.com). Finally, the ratio of leaf 3 area, pavement cell area, pavement cell number and stomata index measured on plants treated at seed level with 50 μM NOSH compared with plants received from carrier-treated seeds (seeds treated with 0.1% DMSO) were determined, the results of which is provided in FIG. 4 (values are averages of three biological repeats, with each repeat consisting of 6-8 plants).

[6] = test system: plants from treated seeds; assay: Stress protection: seed priming by vacuum infiltration, plants left un-watered (drought); format: in vivo
Protocol: Seeds were treated with a NOSH composition comprising 30% methanol and the priming application method was vacuum infiltration (90 sec). […] Plants were growth on optimum condition until 37 days and then were left un-watered for 7 days. Observation on plant phenotype was performed and interesting differences on the plant appearance were recorded. […] This supported the conclusion that NOSH compounds enhance plant tolerance, (probably, however, without being bound to this hypothesis, by avoiding the accumulation of stress-related pigments such as anthocyanin).

[7] = control and high salinity conditions, 50 μM seed priming

SMILES	dissolution directly in 0.1% DMSO [1]	concentration resulting in highest increase in fresh weight [2]	fruit dry weight [3, 7]	fruit fresh weight [3, 7]	fruit yield per plant ([3]; control conditions)	fruit yield per plant ([3]; high salinity conditions (7.8-12.0 dS/m))	average leaf area [4]	total plant leaf area [4]	survival percentage of plants ([4]; vs untreated, hydroprimed, solvent-treated seeds)	growth of the leaves ([2]; 50 μM, seeds soaked 12 hr, 22 DAS, vs no NOSH treatment)	fresh weight of rosettes, ratio to carrier-treated seeds ([2]; 50 μM, seeds soaked 12 hr, 22 days, p value 0.0001)	projected rosette area (PRA) ratio, treated seeds vs carrier-treated seeds ([2]; seeds exposed before germination, carrier 0.1% DMSO)	promoting growth following treatment at the seed level ([2]; treatment of seeds before germination)	leaf 3 area, ratio to carrier-treated seeds [5]	pavement cell area, ratio to carrier-treated seeds [5]	pavement cell number, ratio to carrier-treated seeds [5]	stomata index, ratio to carrier-treated seeds [5]	seed germination after soaking ([6]; NOSH composition comprising 30% methanol, soaking 4 h, 12 h and 24 h, attributed to high percentage of methanol)	plant phenotype / tolerance after drought ([6]; composition with 30% methanol, vacuum infiltration 90 sec, un-watered 7 days after 37 days, vs carrier-treated drought plants)
O=C(CCCO[N+](=O)[O-])Oc1ccccc1C(=O)Oc1ccc(-c2cc(=S)ss2)cc1 [NOSH-ASA]	did not completely dissolve	10 µM	significant improvements	significant improvements	significant improvement	significant improvement	significant improvements	significant improvements	clear improvement										
O=C(CCCO[N+](=O)[O-])Oc1ccc(-c2cc(=S)ss2)cc1 [NOSH]	did not completely dissolve	50 µM								increased growth of the leaves	statistically significant (p values indicated in the Figures) increase	> 1.5 fold	more effective in promoting growth as compared to NOSH-NSAID	statistically significant (p values indicated in the Figures) increase	statistically significant (p values indicated in the Figures) increase	statistically significant (p values indicated in the Figures) increase	statistically significant (p values indicated in the Figures) increase	no seed germination	greener and with less anthocyanin on the leaves
